This passage reports MIC and MBC results from US20220016200A1, “PHARMACEUTICAL COMPOSITION FOR THE TREATMENT OF CYSTIC FIBROSIS” (GALENUS G.H. AG, priority 2018, published 2022).

The test system of experiment [1] is A. haemolyticus 1655843. The experiment in a line: Checkerboard fusidic acid (FD) and colistin sulfate (CS), MIC/FIC and MBC/FBC. It counts as cell-based, Acinetobacter haemolyticus. The following applies: agent alone, CAMHB, 1*10^6 CFU/ml. The procedure: Checkerboard assays between fusidic acid (FD) and colistin sulfate (CS) with a bacterial load 5(1-10)*10^5 CFU/ml in cationic adapted Mueller Hinton broth (CAMHB). • a. Antimicrobial stock solutions were prepared using sterile distilled water; • b. CS was added along the ordinate; FD was added along the abscissa to 96 well, flat bottom, polystyrene panels with no treatment. Colistin alone was tested in triplicates; • c. Serial 2-fold dilutions starting with 640 […] CS and 640 μg/ml FD were made; 15 μl volume of the serial dilutions were added for each agent to the appropriate wells—final volume at 30 μl; • d. For each agent tested alone an additional 15 μl media was added to the well. 30 μl were added in control wells where none of the agent was tested. The negative control well contains 150 μl media without any additions; • e. From an overnight bacterial culture in tryptic soy broth, 100 μL was added to 10 mL of fresh tryptic soy broth. This was then incubated at 37° C. for 1.5 hour at 180 rpm; • f. Bacteria in 120 μl CAMHB were added to each well (end concentration 5(1-10)*10^5 CFU/ml); • g. Plates were incubated at 37° C. in an ambient air incubator for 24 h • h. Turbidity at OD600 is determined with a plate photometer • i. By using a one-time inoculator 3 μl from each well of the 96-well plate were transferred to three blood agar plates. The plates were incubated over night at 37° C. in an ambient air incubator; • j. MIC values are defined as lowest concentration which restricts bacterial growth to OD600≤0.1; • k. MBC values were determined by visual reading the lowest concentration which inhibits 99.9% of the growth of bacteria in the wells; • l. Determination of the fractional inhibitory concentration (FIC) index and fractional bactericidal concentration (FBC) index and characterization of antimicrobial interactions was assessed;
FIC calculation was carried out as: (MIC of drug A, tested in combination)/(MIC of drug A, tested alone)+(MIC of drug B, tested in combination)/(MIC of drug B, tested alone). FBC calculation was carried out just as well;
Interactive categories were calculated from checkerboard analysis using MIC results from testing each agent alone and MIC results from the combination wells adjacent to the wells with growth in them.
Determination of the fractional inhibitory concentration (FIC) index and fractional bactericidal concentration (FBC) index and characterization of antimicrobial interactions was assessed:
(ii) Indifference; FIC/FBC>0.5 to <4.0
(iii) Antagonism; FIC/FBC≥4.0
c. Acinetobacter haemolyticus 1655843 (IHMA), colistin resistant (3xCS>16/>16-64/>64)

For experiment [2], the system named is A. haemolyticus 1655843. Nature of the experiment: Checkerboard colistin sulphate (CS) plus teicoplanin (TP), MIC/FIC and MBC/FBC. The following applies: agent alone, CAMHB, 5*10^5 CFU/ml; for MIC: A. haemolyticus 1655843, 24 h. It counts as cell-based, Acinetobacter haemolyticus. As for the experimental part:
(§1) Checkerboard analysis to determine minimal inhibitory concentration (MIC)/fractional inhibitory concentration (FIC) and minimal […] (MBC)/fractional […] (FBC) values of colistin sulphate (CS) plus teicoplanin (TP) for 6 Gram-negative strains with a bacterial load 5(1-10)*10^5 CFU/ml in a cation-adjusted Mueller-Hinton broth (CAMHB). • a. Antimicrobial stock solutions were prepared using sterile distilled water • b. CS was added along the ordinate; TP was added along the abscissa to 96 well, flat bottom, polystyrene panels with no treatment. Colistin alone was tested in triplicates. • c. Serial 2-fold dilutions starting with 640 μg/ml CS and 640 μg/ml TP were made; 15 μl volume of the serial dilutions were added for each agent to the appropriate wells; final volume at 30 μl • d. For each agent tested alone an additional 15 μl media was added to the well. 30 μl were added in control wells where none of the agent was tested. The negative control well contains 150 μl media without any additions • e. From an overnight bacterial culture in tryptic soy broth, 100 μL was added to 10 mL of fresh tryptic soy broth. This was then incubated at 37° C. for 1.5 hour at 180 rpm. • f. Bacteria in 120 μl CAMHB were added to each well (end concentration 5(1-10)*10^5 CFU/ml) • g. Plates were incubated at 37° C. in an ambient air incubator for 24 h • h. Turbidity at OD600 is determined with a plate photometer • i. By using a one-time inoculator 3 μl from each well of the 96-well plate were transferred to three blood agar plates. The plates were incubated over night at 37° C. in an ambient air incubator • j. MIC values are defined as lowest concentration which restricts bacterial growth to OD600 ≤0.1 • k. MBC values were determined by visual reading the lowest concentration which inhibits 99.9% of the growth of bacteria in the wells • l. Determination of the fractional inhibitory concentration (FIC) index and fractional bactericidal concentration (FBC) index and characterization of antimicrobial interactions was assessed […]
FIC calculation was carried out as: (MIC of drug A, tested in combination)/(MIC of drug A, tested alone)+(MIC of drug B, tested in combination)/(MIC of drug B, tested alone). FBC calculation was carried out just as well […]
(§2) Interactive categories were calculated from checkerboard analysis using MIC results from testing each agent alone and MIC results from the combination wells adjacent to the wells with growth in them […]
b. Indifference; FIC/FBC>0.5 to<4.0 c. Antagonism; FIC/FBC≥4.0 c. A. haemolyticus 1655843 (IHMA), colistin resistant

For the next experiment, the system named is S. maltophilia 1221783. The experiment is described as above. It counts as cell-based, Stenotrophomonas maltophilia. The following applies: agent alone, CAMHB, 5*10^5 CFU/ml. The procedure: as §1, with “MIC values are defined as lowest concentration which restricts bacterial growth to OD600 ≤0.1 • k. MBC values were determined by visual reading the lowest concentration which inhibits 99.9% of the growth of bacteria in the wells • l.” left out
as §2

Like-named read-outs stand apart in the source and are kept apart here. Bridge positions count the residues as written; N and C are the ends. Square brackets hold non-standard residues; d marks the D form. Peptide text beside a SMILES is read from it. * marks the point of attachment. Heptanoyl(5-Me) = CCC(C)CCCC(=O)*; Dab = NCC[C@H](N)C(=O)O

Take `CCC(C)CCCC(=O)N[C@@H](CCN)C(=O)N[C@H](C(=O)N[C@@H](CCN)C(=O)N[C@H]1CCNC(=O)[C@H]([C@@H](C)O)NC(=O)[C@H](CCN)NC(=O)[C@H](CCN)NC(=O)[C@H](CC(C)C)NC(=O)[C@@H](CC(C)C)NC(=O)[C@H](CCN)NC1=O)[C@@H](C)O` (stereo partly drawn) [CS, colistin sulphate] ({Heptanoyl(5-Me)}-[Dab]T[Dab][Dab][Dab][dL]L[Dab][Dab]T; lactam 4-C): the MIC in the experiment with A. haemolyticus 1655843 [1] (A. haemolyticus 1655843, 24 h) is 64 mg/1l; with A. haemolyticus 1655843 [2], more than 16 mg/L; in the experiment on A. haemolyticus 1655843 [2] (listed as colistin), not below 4 mg/L; with S. maltophilia 1221783 (Stenotrophomonas maltophilia, 1221783, 24 h, read-out: MIC), not above 0.5 µg/mL; in the experiment on S. maltophilia 1221783 (24 h), 0.25 µg/mL. Besides, the MBC with A. haemolyticus 1655843 [1] (Acinetobacter haemolyticus, 1655843, A. haemolyticus 1655843) was more than 64 µg/mL; with A. haemolyticus 1655843 [2] (Acinetobacter haemolyticus, 1655843, A. haemolyticus, read-out: MBC) it was more than 16 µg/mL.

As a reminder, the MBC is the lowest tested concentration that kills the bacteria rather than only halting them.
